Patent US20260041640A1 (INCYCLIX BIO, LLC, priority 2023, published 2026)
“And” between values parts separate entries of the source, which are not always exact repeats. Identical values can stand only once. Like-named read-outs stand apart in the source and are kept apart here.

Assay: First-in-human clinical study: plasma and whole blood PK of INX-315 (oral QD, ASD tablet)
Format: in vivo
Text: All INX-315 tablets were taken at approximately the same time(s) each day.
Samples will also be collected pre-dose on Cycle 1 Days 2, 8, 16, and Day 22, and pre-dose on Day 1 of each subsequent cycle.
Standard non-compartmental PK parameters were estimated.
Geometric mean and geometric CV % will be included in the summary statistics.
PK parameters will be summarized descriptively by dosing cohort. AUC and Cmax values will also be presented in scatter plots. Dose proportionality will be assessed for AUC and Cmax using a power model. The 90% CI of the slope for each PK parameter will be estimated from the model and presented in a summary table.
Cohort 1 enrollment of 6 subjects dosed at 100 mg oral QD was completed in October of 2023.
Patients were upgraded to the 200 mg QD dose level and PK/PD plasma parameters were measured (FIG. 18A).
Patients were administered the 200 mg QD and 300 mg QD dose levels and PK/PD plasma parameters were measured.

[1] = plasma, 100 mg QD cohort, Day 1, individual subjects
[2] = plasma, 100 mg QD cohort, Day 1, median
[3] = plasma, 100 mg QD cohort, Day 15, individual subjects
[4] = plasma, 100 mg QD cohort, Day 15, median
[5] = plasma, 100 mg QD, Day 1, individual patients
[6] = plasma, 100 mg QD, Day 15, individual patients
[7] = plasma, 200 mg QD, Day 1, Cohort 2
[8] = plasma, 200 mg QD, Day 1, individual subjects
[9] = plasma, 200 mg QD, Day 15, Cohort 2
[10] = plasma, 200 mg QD, Day 15, individual subjects
[11] = plasma, 300 mg QD cohort, Day 1, individual subjects
[12] = plasma, 300 mg QD cohort, Day 1, median
[13] = plasma, 300 mg QD cohort, Day 15, individual subjects
[14] = whole blood, 100 mg QD, Day 1, individual patients
[15] = whole blood, 100 mg QD, Day 15, individual patients

Work on `NS(=O)(=O)c1ccc(Nc2ncc3cc4n(c3n2)C2(CCCCC2)C(=O)NN4)cc1` [INX-315] yielded a Tmax (human, plasma, po, 100 mg, plasma, 100 mg QD cohort, Day 1, median, read-out: Tmax, Median) of 4 h, a half-life (human, plasma, po, 100 mg, plasma, 100 mg QD cohort, Day 1, median, read-out: t1/2, Median (converted)) of 15.6 h and an AUC(0-t) (human, plasma, po, 100 mg, plasma, 100 mg QD cohort, Day 15, geometric mean, read-out: AUClast, Geometric Mean) of 3290 ng·h/mL. The Cmax (human, plasma, po, 100 mg, plasma, 100 mg QD cohort, Day 15, geometric mean, read-out: Cmax, Geometric Mean) was 211 ng/mL, the half-life (human, plasma, po, 100 mg, plasma, 100 mg QD cohort, Day 15, individual subjects, read-out: t1/2 (converted)) was 17.6 h and the AUC(0-t) (human, plasma, po, 100 mg, plasma, 100 mg QD cohort, Day 15, median, read-out: AUClast, Median) was 3120 ng·h/mL. The Cmax (human, plasma, po, 100 mg, plasma, 100 mg QD cohort, Day 15, median, read-out: Cmax, Median) was 217 ng/mL, the Tmax (human, plasma, po, 100 mg, plasma, 100 mg QD cohort, Day 15, median, read-out: Tmax, Median) was 6 h and the half-life (human, whole blood, oral, 100 mg, preliminary data, first two patients, 100 mg QD, read-out: t1/2 (converted)) was at least 15 h. It also gave an AUC(0-t) (human, whole blood, oral, 100 mg, whole blood, 100 mg QD, Day 1, Cohort 1 (Table 28), read-out: AUClast, geometric mean) of 34700 ng·h/mL, a Cmax (human, whole blood, oral, 100 mg, whole blood, 100 mg QD, Day 1, Cohort 1 (Table 28), read-out: Cmax, geometric mean) of 2280 ng/mL and a Tmax (human, whole blood, oral, 100 mg, whole blood, 100 mg QD, Day 1, Cohort 1 (Table 28), read-out: Tmax, median) of 6 h. It also gave a half-life (human, whole blood, oral, 100 mg, whole blood, 100 mg QD, Day 1, Cohort 1 (Table 28), read-out: t1/2, geometric mean (converted)) of 17.9 h, an AUC (human, whole blood, oral, 100 mg, whole blood, 100 mg QD, Day 1 observed, mean of first two patients, read-out: AUC) of 50600 ng·h/mL and a Cmax (human, whole blood, oral, 100 mg, whole blood, 100 mg QD, Day 1 observed, mean of first two patients, read-out: Cmax) of 3000 ng/mL. The AUC(0-t) (human, whole blood, oral, 100 mg, whole blood, 100 mg QD, Day 15, Cohort 1 (Table 28), read-out: AUClast, median) was 62700 ng·h/mL, the Cmax (human, whole blood, oral, 100 mg, whole blood, 100 mg QD, Day 15, Cohort 1 (Table 28), read-out: Cmax, median) was 3580 ng/mL and the Tmax (human, whole blood, oral, 100 mg, whole blood, 100 mg QD, Day 15, Cohort 1 (Table 28), read-out: Tmax, median) was 6 h. It also gave a half-life (human, whole blood, oral, 100 mg, whole blood, 100 mg QD, Day 15, individual patients, read-out: t1/2 (converted)) of 21.6 h, an AUC (human, whole blood, oral, 100 mg, whole blood, 100 mg QD, Day 15 observed, mean of first two patients, read-out: AUC) of 116000 ng·h/mL and a Cmax (human, whole blood, oral, 100 mg, whole blood, 100 mg QD, Day 15 observed, mean of first two patients, read-out: Cmax) of 5440 ng/mL. For the same molecule, the AUC (human, whole blood, oral, 200 mg, Cohort 2 (200 mg QD), Day 1, individual subjects, read-out: AUC Whole Blood) was 96600 ng·h/mL, the AUC (human, whole blood, oral, 300 mg, Cohort 3 (300 mg QD), Day 1, individual subjects, read-out: AUC Whole Blood) was 134000 ng·h/mL and the AUC (human, whole blood, oral, 300 mg, Cohort 3 (300 mg QD), Day 15, Tlast = 6 hours, read-out: AUC Whole Blood) was 43900 ng·h/mL. For the same molecule, the AUC (human, whole blood, oral, 300 mg, Cohort 3 (300 mg QD), Day 15, individual subjects, read-out: AUC Whole Blood) was 86400 ng·h/mL, the “Clast, geometric mean” value (plasma, 100 mg QD cohort, Day 1, geometric mean) was 48.7 ng/mL and the AUClast [1] was 2410 ng·h/mL and 1840 ng·h/mL and 3300 ng·h/mL and 2160 ng·h/mL and 3360 ng·h/mL and 633 ng·h/mL. For the same molecule, the Clast [1] was 42.3 ng/mL and 50.7 ng/mL and 85.2 ng/mL and 31.9 ng/mL and 114 ng/mL and 20 ng/mL, the Cmax [1] was 320 ng/mL and 109 ng/mL and 197 ng/mL and 43.8 ng/mL and the Tlast [1] was 24 h. The “Clast, median” value [2] was 46.5 ng/mL, the “Tlast, Median” value [2] was 24 h and the “Clast, geometric mean” value (plasma, 100 mg QD cohort, Day 15, geometric mean) was 90.6 ng/mL. The AUClast [3] was 6840 ng·h/mL and 1930 ng·h/mL and 1640 ng·h/mL and 5700 ng·h/mL, the Clast [3] was 188 ng/mL and 65.4 ng/mL and 63.1 ng/mL and 154 ng/mL and 51.2 ng/mL and the Cmax [3] was 424 ng/mL and 96.4 ng/mL and 344 ng/mL. The Tlast [3] was 24 h, the t1/2 [3] was 16.0 h and the “Clast, median” value [4] was 65.4 ng/mL. The “Tlast, Median” value [4] was 24 h, the “dose proportionality of exposure (AUC)” value (plasma, 100 mg QD versus 200 mg QD) was “dose-proportional increase in exposure (or greater)” and the “dose proportionality of exposure” value (plasma, 100 mg QD versus 200 mg QD and 300 mg QD) was “dose-proportional increase in exposure (or greater)”. For the same molecule, the “Clast, geometric mean” value (plasma, 100 mg QD, Day 1, Cohort 1 (Table 27)) was 61.4 ng/mL, the AUClast [5] was 3410 ng·h/mL and 2160 ng·h/mL and 2510 ng·h/mL and 1990 ng·h/mL and the Clast [5] was 119 ng/mL and 86.3 ng/mL and 33.9 ng/mL and 43.9 ng/mL and 57.0 ng/mL. The Cmax [5] was 194 ng/mL and 197 ng/mL and 179 ng/mL and 326 ng/mL and 119 ng/mL, the Tlast [5] was 24 h and the t1/2 [5] was 8.88 h and 11.5 h and 16.7 h. For the same molecule, the AUClast [6] was 5920 ng·h/mL, the Clast [6] was 199 ng/mL and 155 ng/mL and the Cmax [6] was 358 ng/mL. The Tlast [6] was 24 h, the t1/2 [6] was 15.2 h and the “Clast, geometric mean” value [7] was 223 ng/mL. The “Clast, median” value [7] was 261 ng/mL, the “Tlast, Median” value [7] was 24 h and the AUClast [8] was 7300 ng·h/mL and 11300 ng·h/mL and 19100 ng·h/mL and 4540 ng·h/mL. For the same molecule, the Clast [8] was 212 ng/mL and 291 ng/mL and 487 ng/mL and 69.7 ng/mL and 261 ng/mL, the Cmax [8] was 444 ng/mL and 800 ng/mL and 1140 ng/mL and 305 ng/mL and the Tlast [8] was 24 h. For the same molecule, the “Clast, geometric mean” value [9] was 263 ng/mL, the “Clast, median” value [9] was 320 ng/mL and the “Tlast, Median” value [9] was 24 h. For the same molecule, the AUClast [10] was 6560 ng·h/mL and 14300 ng·h/mL and 18100 ng·h/mL and 13200 ng·h/mL, the Clast [10] was 88.8 ng/mL and 324 ng/mL and 521 ng/mL and 317 ng/mL and the Cmax [10] was 1230 ng/mL and 997 ng/mL and 758 ng/mL. For the same molecule, the Tlast [10] was 24 h, the t1/2 [10] was 10.5 h and 14.3 h and the “Clast, geometric mean” value (plasma, 300 mg QD cohort, Day 1, geometric mean) was 213 ng/mL. The AUClast [11] was 7590 ng·h/mL and 11000 ng·h/mL and 8080 ng·h/mL and 11500 ng·h/mL, the Clast [11] was 148 ng/mL and 135 ng/mL and 303 ng/mL and 219 ng/mL and 331 ng/mL and the Cmax [11] was 550 ng/mL and 490 ng/mL and 812 ng/mL. The Tlast [11] was 24 h, the t1/2 [11] was 16.2 h and the “Clast, median” value [12] was 219 ng/mL. The “Tlast, Median” value [12] was 24 h, the AUClast [13] was 4430 ng·h/mL and the Clast [13] was 96.8 ng/mL and 359 ng/mL. The Cmax [13] was 840 ng/mL, the Tlast [13] was 24 h and 8 h and the Tmax [13] was 0.5 h. For the same molecule, the t1/2 [13] was 5.80 h, the “factor by which observed AUC exceeded the model” value (whole blood, 100 mg QD, Day 1) was 9 × and the “Clast, geometric mean” value (whole blood, 100 mg QD, Day 1, Cohort 1 (Table 28)) was 956 ng/mL. The AUClast [14] was 60500 ng·h/mL and 40600 ng·h/mL and 37800 ng·h/mL and 32500 ng·h/mL and 13400 ng·h/mL and 43600 ng·h/mL, the Clast [14] was 1840 ng/mL and 1020 ng/mL and 1180 ng/mL and 719 ng/mL and 502 ng/mL and 954 ng/mL and the Cmax [14] was 3430 ng/mL and 2570 ng/mL and 2110 ng/mL and 2710 ng/mL and 805 ng/mL and 3470 ng/mL. For the same molecule, the Tlast [14] was 24 h, the t1/2 [14] was 22.4 h and 13.9 h and 20.5 h and 14.5 h and 27.4 h and 12.8 h and the Cmin (whole blood, 100 mg QD, Day 1 observed, mean of first two patients) was 1430 ng/mL. For the same molecule, the “Clast, median” value (whole blood, 100 mg QD, Day 15, Cohort 1 (Table 28)) was 1670 ng/mL, the AUClast [15] was 117000 ng·h/mL and 31400 ng·h/mL and the Clast [15] was 3220 ng/mL and 1670 ng/mL and 891 ng/mL. For the same molecule, the Cmax [15] was 7290 ng/mL and 1820 ng/mL, the Tlast [15] was 24 h and the t1/2 [15] was 18.3 h. For the same molecule, the Cmin (whole blood, 100 mg QD, Day 15 observed, mean of first two patients) was 2445 ng/mL, the “Total Area” value (whole blood, 100 mg QD, d 1, Patients 1 and 2) was 60740 and 41732 and the “Total Area” value (whole blood, 100 mg QD, d 15, Patients 1 and 2) was 118285 and 65180.
